In US4107424A, “1-N-[(S)-α-hydroxy-ω-aminoacyl] derivatives of 3',4'-dideoxykanamycin B and 3'-deoxykanamycin B antibiotics” (Zaidan Hojin Biseibutsu Kagaku Kenkyu Kai, priority 1972, dated 1978):
Values after ≈ are worked out from the molar mass of the structure shown. Where two headings read alike, the source gives them in different places.

Assays:
[1] = system: Staphylococcus aureus Terajima; assay: Minimum inhibitory concentration, serial dilution method; assay type: cell-based; details: nutrient agar, 37° C, 18 hours, read-out: Minimum inhibitory concentrations
[2] = system: Corynebacterium bovis 1810; assay: as above; assay type: cell-based; details: Corynebacterium bovis, 1810; nutrient agar, 37° C, 18 hours; read-out: Minimum inhibitory concentrations
[3] = in vivo; details: mouse, iv
[4] = system: Staphylococcus aureus Smith; assay: Minimum inhibitory concentration, serial dilution method; assay type: cell-based; details: nutrient agar, 37° C, 18 hours, read-out: Minimum inhibitory concentrations
[5] = system: Shigella dysenteriae JS 11910; assay: as above; assay type: cell-based; details: JS11910, 18 h, read-out: Minimum inhibitory concentrations
[6] = system: Salmonella enteritidis 1891; assay: as above; assay type: cell-based; details: Salmonella enterica, nutrient agar, 37° C, 18 hours, read-out: Minimum inhibitory concentrations
[7] = system: mice; assay: Acute intravenous toxicity (LD50) in mice; details: in words
[8] = system: Proetus vulgaris OX 19; assay: Minimum inhibitory concentration, serial dilution method; assay type: cell-based; details: nutrient agar, 37° C, 18 hours; read-out: Minimum inhibitory concentrations
[9] = system: Bacillus cereus ATCC 10702; assay: as above; assay type: cell-based; details: ATCC10702, nutrient agar, 37° C, 18 hours, read-out: Minimum inhibitory concentrations
[10] = system: Pseudomonas aeruginosa 99; assay: Minimal inhibitory concentration, agar dilution streak method; assay type: cell-based; details: nutrient agar, 37° C, 18 hours
Experimental: (§1) [α]D^22 + 38°, (c 0.85, water).
(§2) *Agar Agar dilution streak method (nutrient agar, 37° C, 18 hours)
(§3) *Agar dilution streak method (nutrient agar, 37° C, 18 hours).

[11] = system: Salmonella typhosa T-63; assay: as above; assay type: cell-based; details: Salmonella enterica, nutrient agar, 37° C, 18 hours
Experimental: as §1, §2, §3

[12] = system: Sarcina lutea PCI 1001; assay: as above; assay type: cell-based; details: Micrococcus luteus, PCI1001, 18 h, read-out: Minimal inhibitory concentration
Experimental: as §1, §2, §3

[13] = system: Escherichia coli K-12 R-5; assay: as above; assay type: cell-based; details: K12R5, nutrient agar, 37° C, 18 hours
Experimental: as §1, §2, §3

[14] = system: Escherichia coli NIHJ; assay: as above; assay type: cell-based; details: nutrient agar, 37° C, 18 hours
Experimental: as §1, §2, §3

[15] = system: gram-positive and gram-negative bacteria; assay: Antibacterial activity (in words); assay type: cell-based; details: various gram-positive and gram-negative bacteria, including resistant strains
Experimental: as §1

[16] = system: Shigella flexneri 4b JS 11811; assay: Minimum inhibitory concentration, serial dilution method; assay type: cell-based; details: 4BJS11811, nutrient agar, 37° C, 18 hours, read-out: Minimum inhibitory concentrations
[17] = system: Bacillus subtilis PCI 219; assay: as above; assay type: cell-based; details: PCI219, nutrient agar, 37° C, 18 hours, read-out: Minimum inhibitory concentrations
[18] = system: Mycobacterium smegmatis ATCC 607; assay: Minimal inhibitory concentration, agar dilution streak method; assay type: cell-based; details: Mycolicibacterium smegmatis, ATCC607; nutrient agar, 37° C, 18 hours; read-out: Minimum inhibitory concentrations
[19] = system: Pseudomonas aeruginosa A 3; assay: as above; assay type: cell-based; details: A3, nutrient agar, 37° C, 18 hours
Experimental: as §2, §3

[20] = system: Escherichia coli K-12 LA 290 R 56; assay: as above; assay type: cell-based; details: 18 h
Experimental: as §2, §3

[21] = system: Klebsiella pneumoniae type 22 #3038; assay: as above; assay type: cell-based; details: Klebsiella pneumoniae; nutrient agar, 37° C, 18 hours
Experimental: as §2, §3

[22] = system: Escherichia coli K-12 LA 290 R 55; assay: as above; assay type: cell-based; details: 18 h
Experimental: as §2, §3

[23] = system: Pseudomonas aeruginosa GN 315; assay: as above; assay type: cell-based; details: GN315, nutrient agar, 37° C, 18 hours, read-out: Minimal inhibitory concentration
Experimental: as §2, §3

[24] = system: Escherichia coli K-12 W 677; assay: as above; assay type: cell-based; details: K12W677, nutrient agar, 37° C, 18 hours
Experimental: as §2, §3

[25] = system: Escherichia coli K-12 JR 66/W 677; assay: as above; assay type: cell-based; details: Escherichia coli, 18 h
Experimental: as §2, §3

[26] = system: Pseudomonas aeruginosa TI-13; assay: as above; assay type: cell-based; details: TI13, nutrient agar, 37° C, 18 hours
Experimental: as §2, §3

[27] = system: Escherichia coli K-12 LA 290 R 64; assay: as above; assay type: cell-based; details: nutrient agar, 37° C, 18 hours
Experimental: as §2, §3

[28] = system: Escherichia coli K-12 ML 1629; assay: as above; assay type: cell-based; details: K12ML1629, nutrient agar, 37° C, 18 hours
Experimental: as §2, §3

[29] = system: Escherichia coli K-12 ML 1410 R 81; assay: as above; assay type: cell-based; details: 18 h
Experimental: as §2, §3

[30] = system: Escherichia coli K-12 ML 1410; assay: as above; assay type: cell-based; details: K12ML1410, nutrient agar, 37° C, 18 hours
Experimental: as §2, §3

[31] = system: Escherichia coli K-12 ML 1630; assay: as above; assay type: cell-based; details: K12ML1630, nutrient agar, 37° C, 18 hours
Experimental: as §2, §3

[32] = system: Escherichia coli K-12; assay: as above; assay type: cell-based; details: K12, nutrient agar, 37° C, 18 hours
Experimental: as §2, §3

[33] = system: Pseudomonas aeruginosa No.12; assay: as above; assay type: cell-based; details: nutrient agar, 37° C, 18 hours
Experimental: as §2, §3

[34] = system: Staphylococcus aureus FDA 209P; assay: as above; assay type: cell-based; details: FDA209P, nutrient agar, 37° C, 18 hours
Experimental: as §2, §3

[35] = system: Shigella sonnei JS 11746; assay: Minimum inhibitory concentration, serial dilution method; assay type: cell-based; details: JS11746, nutrient agar, 37° C, 18 hours, read-out: Minimum inhibitory concentrations
[36] = system: Bacillus anthracis; assay: microbe, parasite or virus in culture; assay type: cell-based; details: 18 h, read-out: Minimum inhibitory concentrations
[37] = system: Klebsiella pneumoniae PCI 1602; assay: Minimum inhibitory concentration, serial dilution method; assay type: cell-based; details: PCI1602, nutrient agar, 37° C, 18 hours, read-out: Minimum inhibitory concentrations
[38] = system: kanamycin-resistant strains; details: strains producing 3'-hydroxyl phosphorylating enzyme; cited from earlier work
[39] = system: nucleotidyl-transferase; details: adenylylation of 2"-hydroxyl group with ATP; cited from earlier work
[40] = read-out: Minimal inhibitory concentration
[41] = read-out: minimum inhibitory concentrations
[42] = drug-resistant strain, read-out: minimum inhibitory concentrations

## NCC[C@H](O)C(=O)N[C@@H]1C[C@H](N)[C@@H](O[C@H]2O[C@H](CN)[C@@H](O)[C@H](O)[C@H]2N)[C@H](O)[C@H]1O[C@H]1O[C@H](CO)[C@@H](O)[C@H](N)[C@H]1O [AHB-kanamycin B, 1-N-[(S)-4-amino-2-hydroxybutyryl]-kanamycin B]
[1]
  MIC: 0.2 µg/mL (≈ 0.342 µM)
[2]
  MIC: 0.39 µg/mL (≈ 0.667 µM)
[3]
  LD50: > 100 mg/kg
[4]
  MIC: < 0.2 µg/mL
[5]
  MIC: 3.12 µg/mL (≈ 5.34 µM)
[6]
  MIC: 3.12 µg/mL (≈ 5.34 µM)
[7]
  toxicity: low toxicity to animals and men
[8]
  MIC: 1.56 µg/mL (≈ 2.67 µM)
[9]
  MIC: 1.56 µg/mL (≈ 2.67 µM)
[10]; [40]
  MIC: 25 µg/mL (≈ 42.8 µM)
[11]
  MIC: 0.39 µg/mL (≈ 0.667 µM)
[12]
  MIC: 3.13 µg/mL (≈ 5.35 µM)
[13]
  MIC: 0.78 µg/mL (≈ 1.33 µM)
[14]
  MIC: 0.78 µg/mL (≈ 1.33 µM)
[15]
  antibacterial activity: high antibacterial activity not only against various gram-positive and gram-negative bacteria which are sensitive to kanamycins, but also against the drug-resistant strains of Escherichia coli and Pseudomonas aeruginosa
[16]
  MIC: 3.12 µg/mL (≈ 5.34 µM)
[17]
  MIC: < 0.2 µg/mL
[18]
  MIC: 0.78 µg/mL (≈ 1.33 µM)
[19]; [40]
  MIC: 6.25 µg/mL (≈ 10.7 µM)
[20]; [40]
  MIC: 0.39 µg/mL (≈ 0.667 µM)
[21]
  MIC: 6.25 µg/mL (≈ 10.7 µM)
[22]; [40]
  MIC: 1.56 µg/mL (≈ 2.67 µM)
[23]
  MIC: 50 µg/mL (≈ 85.5 µM)
[24]; [40]
  MIC: 0.39 µg/mL (≈ 0.667 µM)
[25]; [40]
  MIC: 3.12 µg/mL (≈ 5.34 µM)
[26]; [40]
  MIC: 6.25 µg/mL (≈ 10.7 µM)
[27]; [40]
  MIC: 0.39 µg/mL (≈ 0.667 µM)
[28]; [40]
  MIC: 1.56 µg/mL (≈ 2.67 µM)
[29]; [40]
  MIC: 1.56 µg/mL (≈ 2.67 µM)
[30]; [40]
  MIC: 3.13 µg/mL (≈ 5.35 µM)
[31]; [40]
  MIC: 1.56 µg/mL (≈ 2.67 µM)
[32]; [40]
  MIC: 0.78 µg/mL (≈ 1.33 µM)
[33]; [40]
  MIC: 6.25 µg/mL (≈ 10.7 µM)
[34]; [40]
  MIC: 0.78 µg/mL (≈ 1.33 µM)
[35]
  MIC: 1.56 µg/mL (≈ 2.67 µM)
[36]
  MIC: < 0.2 µg/mL
[37]
  MIC: 0.39 µg/mL (≈ 0.667 µM)

## NC[C@@H]1CC[C@@H](N)[C@@H](O[C@H]2[C@H](O)[C@@H](O[C@H]3O[C@H](CO)[C@@H](O)[C@H](N)[C@H]3O)[C@H](N)C[C@@H]2N)O1 [DKB, 3',4'-dideoxykanamycin B]
[10]; [41]
  MIC: 12.5 µg/mL (≈ 27.7 µM)
[19]; [41]
  MIC: 3.12 µg/mL (≈ 6.91 µM)
[20]; [41]
  MIC: 25 µg/mL (≈ 55.4 µM)
[22]; [41]
  MIC: > 100 µg/mL
[24]; [41]
  MIC: 1.56 µg/mL (≈ 3.45 µM)
[25]; [41]
  MIC: 100 µg/mL (≈ 221 µM)
[26]; [41]
  MIC: 3.12 µg/mL (≈ 6.91 µM)
[27]; [41]
  MIC: 25 µg/mL (≈ 55.4 µM)
[28]; [42]
  MIC: 3.12 µg/mL (≈ 6.91 µM)
[29]; [41]
  MIC: 3.12 µg/mL (≈ 6.91 µM)
[30]; [41]
  MIC: 1.56 µg/mL (≈ 3.45 µM)
[31]; [41]
  MIC: 3.12 µg/mL (≈ 6.91 µM)
[32]; [41]
  MIC: 1.56 µg/mL (≈ 3.45 µM)
[33]; [41]
  MIC: 3.12 µg/mL (≈ 6.91 µM)
[34]; [41]
  MIC: 1.56 µg/mL (≈ 3.45 µM)
[38]
  activity against kanamycin-resistant strains: actually effective
[39]
  inactivation by nucleotidyl-transferase: inactivate

## NC[C@H]1O[C@H](O[C@H]2[C@H](O)[C@@H](O[C@H]3O[C@H](CO)[C@@H](O)[C@H](N)[C@H]3O)[C@H](N)C[C@@H]2N)[C@H](O)[C@@H](O)[C@@H]1O [Kanamycin, kanamycin]
[10]; [41]
  MIC: > 100 µg/mL
[19]; [41]
  MIC: > 100 µg/mL
[20]; [41]
  MIC: 12.5 µg/mL (≈ 25.8 µM)
[22]; [41]
  MIC: 100 µg/mL (≈ 206 µM)
[24]; [41]
  MIC: 1.56 µg/mL (≈ 3.22 µM)
[25]; [41]
  MIC: > 100 µg/mL
[26]; [41]
  MIC: > 100 µg/mL
[27]; [41]
  MIC: 12.5 µg/mL (≈ 25.8 µM)
[28]; [42]
  MIC: > 100 µg/mL
[29]; [41]
  MIC: > 100 µg/mL
[30]; [41]
  MIC: 1.56 µg/mL (≈ 3.22 µM)
[31]; [41]
  MIC: > 100 µg/mL
[32]; [41]
  MIC: 0.78 µg/mL (≈ 1.61 µM)
[33]; [41]
  MIC: 50 µg/mL (≈ 103 µM)
[34]; [41]
  MIC: 3.12 µg/mL (≈ 6.44 µM)
[39]
  inactivation by nucleotidyl-transferase: inactivate
